Experimental data reported in US7045532B2 (Millennium Pharmaceuticals, Inc., priority 1999, dated 2006).
Like-named read-outs stand apart in the source and are kept apart here.

Legend:
ACE-2 [1] = target: T1, ACE-2 (Homo sapiens, UniProt Q9BYF1); experiment: ACE-2 Competitive Substrate Assay (ACS Assay); type: biochemical
T1 construct: a stop codon inserted after the serine immediately preceding the transmembrane domain; made in house; host or cells: CHO K1 cells (transient transfection, purified from conditioned medium)

ACE-2 [2] = target: ACE-2 (Rattus norvegicus, UniProt Q5EGZ1); experiment: ACE-2 Competitive Substrate Assay, rat ACE-2; type: biochemical; conditions: Ki class, compounds tested in 5% DMSO
ACE (Sigma, A2580) = target: T2, ACE (Sigma, A2580) (Sus scrofa, UniProt F1RRW5); experiment: ACE enzymatic activity assay; type: biochemical, porcine; conditions: Ki class, compounds tested in 5% DMSO
T2 construct: ACE from porcine kidney; purchased Sigma A2580; host or cells: porcine kidney
T2 sequence (F1RRW5 34-1309): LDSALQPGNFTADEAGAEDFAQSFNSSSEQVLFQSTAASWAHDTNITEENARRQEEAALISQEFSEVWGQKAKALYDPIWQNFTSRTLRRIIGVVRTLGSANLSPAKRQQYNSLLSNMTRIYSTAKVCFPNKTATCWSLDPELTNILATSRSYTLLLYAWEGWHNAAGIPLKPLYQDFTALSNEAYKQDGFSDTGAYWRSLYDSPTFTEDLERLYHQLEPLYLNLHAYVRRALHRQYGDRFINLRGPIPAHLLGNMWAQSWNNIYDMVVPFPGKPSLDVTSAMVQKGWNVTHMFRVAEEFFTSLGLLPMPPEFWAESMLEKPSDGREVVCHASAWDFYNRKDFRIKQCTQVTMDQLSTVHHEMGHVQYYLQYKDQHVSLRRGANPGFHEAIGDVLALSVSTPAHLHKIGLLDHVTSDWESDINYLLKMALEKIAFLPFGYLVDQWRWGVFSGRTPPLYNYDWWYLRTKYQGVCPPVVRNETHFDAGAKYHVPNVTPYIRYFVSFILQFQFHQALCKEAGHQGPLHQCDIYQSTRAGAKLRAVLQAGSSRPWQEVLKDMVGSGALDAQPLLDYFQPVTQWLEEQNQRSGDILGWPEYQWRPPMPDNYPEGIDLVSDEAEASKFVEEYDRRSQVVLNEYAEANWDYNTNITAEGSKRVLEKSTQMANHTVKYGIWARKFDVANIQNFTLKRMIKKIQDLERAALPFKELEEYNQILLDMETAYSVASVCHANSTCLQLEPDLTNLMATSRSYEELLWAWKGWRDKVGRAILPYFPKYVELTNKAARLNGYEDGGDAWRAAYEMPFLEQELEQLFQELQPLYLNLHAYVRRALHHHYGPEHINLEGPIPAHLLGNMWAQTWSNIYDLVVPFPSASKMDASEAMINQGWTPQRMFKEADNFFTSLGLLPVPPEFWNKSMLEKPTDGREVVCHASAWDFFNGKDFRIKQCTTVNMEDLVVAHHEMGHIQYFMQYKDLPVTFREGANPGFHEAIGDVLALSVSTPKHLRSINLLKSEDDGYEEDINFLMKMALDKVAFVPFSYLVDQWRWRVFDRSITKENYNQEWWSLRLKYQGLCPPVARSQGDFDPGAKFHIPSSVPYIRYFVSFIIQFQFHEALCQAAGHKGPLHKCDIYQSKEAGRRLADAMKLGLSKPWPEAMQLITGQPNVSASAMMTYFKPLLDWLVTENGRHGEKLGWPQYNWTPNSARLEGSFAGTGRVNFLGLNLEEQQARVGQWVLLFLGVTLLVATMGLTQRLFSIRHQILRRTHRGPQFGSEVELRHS
Summary of the method: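 ACE (1 nM final) in 50 mM HEPES, 300 mM NaCl, 0.01% Brij-35, pH 7.5, with compound in 5% DMSO at 12 concentrations, 25 °C. Substrate cleavage run ~30 min, stopped with EDTA; fluorescence read at excitation 320 nm, emission 405 nm.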

Carboxypeptidase A = target: T3, Carboxypeptidase A (Bos taurus, UniProt P00730); experiment: Carboxypeptidase A activity assay; type: biochemical; conditions: Ki class, compounds tested in 5% DMSO
T3 sequence (P00730 111-419): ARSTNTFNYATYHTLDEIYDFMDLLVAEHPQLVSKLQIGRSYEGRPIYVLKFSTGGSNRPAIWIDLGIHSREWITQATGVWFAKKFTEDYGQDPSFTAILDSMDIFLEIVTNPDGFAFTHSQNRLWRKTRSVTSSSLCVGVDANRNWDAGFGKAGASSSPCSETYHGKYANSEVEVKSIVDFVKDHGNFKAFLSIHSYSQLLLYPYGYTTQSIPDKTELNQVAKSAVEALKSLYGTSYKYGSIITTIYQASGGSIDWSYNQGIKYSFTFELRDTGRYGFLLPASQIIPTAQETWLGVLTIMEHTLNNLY
Summary of the method: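 Bovine carboxypeptidase A activity followed at 328 nm in 5% DMSO, reaction stopped with EDTA. Activity measured at 12 compound concentrations. Ki derived from apparent Ki as Ki=Kiapp/(1+[S]/Km).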

[3] = Ki class, compounds tested in 5% DMSO, 12 concentrations, read-out: Human ACE-2 Activity
[4] = Ki class, compounds tested in 5% DMSO, 12 compound concentrations, Ki=Kiapp/(1+[S]/Km), read-out: Human ACE-2 Activity
[5] = Table 3, very good ACE-2 inhibiting compounds, species not given, read-out: ACE-2 Activity, Ki

T1 sequence (Q9BYF1 18-740 limits assumed): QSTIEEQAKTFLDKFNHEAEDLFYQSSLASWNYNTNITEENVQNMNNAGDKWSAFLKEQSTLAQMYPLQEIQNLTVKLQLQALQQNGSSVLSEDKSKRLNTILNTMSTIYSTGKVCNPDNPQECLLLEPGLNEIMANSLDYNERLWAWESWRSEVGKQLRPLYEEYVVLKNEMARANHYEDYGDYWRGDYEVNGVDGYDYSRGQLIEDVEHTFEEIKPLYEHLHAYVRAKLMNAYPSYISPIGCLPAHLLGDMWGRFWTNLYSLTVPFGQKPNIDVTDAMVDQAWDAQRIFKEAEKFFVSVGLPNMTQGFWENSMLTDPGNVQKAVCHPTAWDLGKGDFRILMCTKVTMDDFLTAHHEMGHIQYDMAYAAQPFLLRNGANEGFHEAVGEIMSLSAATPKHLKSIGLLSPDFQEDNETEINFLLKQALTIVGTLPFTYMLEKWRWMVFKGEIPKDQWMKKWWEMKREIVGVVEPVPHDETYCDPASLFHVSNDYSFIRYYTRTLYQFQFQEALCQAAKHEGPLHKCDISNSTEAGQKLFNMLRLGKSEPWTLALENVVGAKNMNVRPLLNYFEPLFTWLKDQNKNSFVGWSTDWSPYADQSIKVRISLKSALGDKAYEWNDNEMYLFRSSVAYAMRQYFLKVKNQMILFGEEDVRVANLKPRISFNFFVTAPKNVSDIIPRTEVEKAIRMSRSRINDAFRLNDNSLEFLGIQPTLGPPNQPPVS
Chain of ACE-2 (Rattus norvegicus, UniProt Q5EGZ1) (Q5EGZ1 18-805): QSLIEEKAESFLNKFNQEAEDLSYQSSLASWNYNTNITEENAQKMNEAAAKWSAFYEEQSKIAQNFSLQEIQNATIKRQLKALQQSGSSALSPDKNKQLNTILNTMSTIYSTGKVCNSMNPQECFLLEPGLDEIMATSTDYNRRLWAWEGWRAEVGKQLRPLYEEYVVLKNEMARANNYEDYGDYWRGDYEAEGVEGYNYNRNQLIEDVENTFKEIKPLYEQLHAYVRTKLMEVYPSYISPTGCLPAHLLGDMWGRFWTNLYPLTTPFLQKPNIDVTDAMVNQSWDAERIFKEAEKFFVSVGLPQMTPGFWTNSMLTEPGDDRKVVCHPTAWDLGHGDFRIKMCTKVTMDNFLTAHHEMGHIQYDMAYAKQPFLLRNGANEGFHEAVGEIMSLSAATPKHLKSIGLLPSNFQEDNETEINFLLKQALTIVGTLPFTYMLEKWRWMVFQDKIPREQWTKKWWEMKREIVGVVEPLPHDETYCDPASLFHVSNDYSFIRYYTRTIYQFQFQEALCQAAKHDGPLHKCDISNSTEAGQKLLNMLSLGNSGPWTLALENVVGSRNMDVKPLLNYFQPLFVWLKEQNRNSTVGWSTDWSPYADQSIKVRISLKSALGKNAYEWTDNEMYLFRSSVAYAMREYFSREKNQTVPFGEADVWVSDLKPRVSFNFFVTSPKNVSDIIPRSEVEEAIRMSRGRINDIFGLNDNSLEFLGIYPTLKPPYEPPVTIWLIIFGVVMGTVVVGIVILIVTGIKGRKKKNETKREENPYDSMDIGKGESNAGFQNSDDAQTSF

Structure (SMILES)	Ki (ACE-2 [1]; [3])	Ki (ACE-2 [2]; 12 concentrations)	Ki (ACE (Sigma, A2580); 12 concentrations)	Ki (Carboxypeptidase A; 12 concentrations)	Ki (ACE-2 [1]; [4])	Ki (ACE-2 [1]; [5])	Ki (ACE-2 [2]; 12 compound concentrations)	Ki (ACE (Sigma, A2580); 12 compound concentrations)	Ki (Carboxypeptidase A; 12 compound concentrations)
CCCCC(N[C@@H](Cc1c[nH]cn1)C(=O)O)C(=O)O (single isomer, unassigned) [ED, 2-[1-Carboxy-2-(1H-imidazol-4-yl)-ethylamino]hexanoic acid]	> 0.5 µM	0.1 to 0.5 µM	> 50 µM	> 50 µM	–	–	–	–	–
CC(C)CC(N[C@@H](Cc1cn(Cc2ccc(C(F)(F)F)cc2)cn1)C(=O)O)C(=O)O (stereo partly drawn) [EL, 2-{1-Carboxy-2-[1-(4-trifluoromethyl-benzyl)-1H-imidazol-4-yl}-ethylamino]4-methyl-pentanoic acid]	> 0.5 µM	0.1 to 0.5 µM	> 50 µM	10 to 50 µM	–	–	–	–	–
CC(C)(C)C[C@H](N[C@@H](C(=O)O)c1ccccc1)C(=O)O [CJ, 2-[(Carboxy-phenyl-methyl)-amino]-4,4-dimethyl-pentanoic acid]	> 0.5 µM	> 0.5 µM	> 50 µM	> 50 µM	–	–	–	–	–
Cc1ccc(Cn2cncc2C[C@H](NC(CC(C)C)C(=O)O)C(=O)O)cc1C (single isomer, unassigned) [HK, 2-[1-Carboxy-2-[3-(3,4-dimethyl-benzyl)-3H-imidazol-4-yl]-ethylamino)4-methyl-pentanoic acid]	–	–	–	–	< 0.1 µM	< 0.05 µM	< 0.1 µM	10 to 50 µM	10 to 50 µM
O=C(O)[C@H](CC#Cc1ccccn1)N[C@H](CCc1ccccc1)C(=O)O [EB, 2-(1-Carboxy-3-phenyl-propylamino)-5-pyridin-2-yl-pent-4-ynoic acid]	> 0.5 µM	> 0.5 µM	> 50 µM	10 to 50 µM	–	–	–	–	–
COC(=O)[C@H](CC(C)C)NCC(=O)[C@H](Cc1ccccc1)NC(=O)OCc1ccccc1 [DI, 2-(3-Benzyloxycarbonylamino-2-oxo-4-phenyl-butylamino)-4-methyl-pentanoic acid methylester]	> 0.5 µM	> 0.5 µM	> 50 µM	10 to 50 µM	–	–	–	–	–
CC(C)CC(N[C@@H](Cc1cncn1Cc1ccc(C(F)(F)F)cc1)C(=O)O)C(=O)O (stereo partly drawn) [GI, 2-[1-Carboxy-2-[3-(4-trifluoromethyl-benzyl)-imidazol-4-yl]-ethylamino]-4-methyl-pentanoic acid]	< 0.1 µM	< 0.1 µM	> 50 µM	10 to 50 µM	–	–	–	–	–
CCCCCC[C@H](N[C@H](Cc1c[nH]cn1)C(=O)O)C(=O)O [CR, 2-[1-Carboxy-2-(1H-imidazol-4-yl)-ethylamino)octanoic acid]	> 0.5 µM	> 0.5 µM	> 50 µM	> 50 µM	–	–	–	–	–
CC(C)CC(N[C@@H](Cc1cncn1Cc1cccc2ccccc12)C(=O)O)C(=O)O (single isomer, unassigned) [GK, 2-[1-Carboxy-2-(3-naphthalen-1-ylmethyl-3Himidazol-4-yl)-ethylamino]4-methyl-pentanoic acid]	< 0.1 µM	< 0.1 µM	> 50 µM	10 to 50 µM	–	–	–	–	–

Further lines, results first:

Ki (ACE-2 [1]; [3])	Ki (ACE-2 [2]; 12 concentrations)	Ki (ACE (Sigma, A2580); 12 concentrations)	Ki (Carboxypeptidase A; 12 concentrations)	Ki (ACE-2 [1]; [4])	Ki (ACE-2 [1]; [5])	Ki (ACE-2 [2]; 12 compound concentrations)	Ki (ACE (Sigma, A2580); 12 compound concentrations)	Ki (Carboxypeptidase A; 12 compound concentrations)	Structure (SMILES)
> 0.5 µM	0.1 to 0.5 µM	> 50 µM	> 50 µM	–	–	–	–	–	O=C(O)[C@H](CCc1ccccc1)N[C@@H](CC1CC1)C(=O)O [CL, 2-(1-Carboxy-2-cyclopropyl-ethylamino)-4-phenyl-butync acid]
> 0.5 µM	> 0.5 µM	> 50 µM	> 50 µM	–	–	–	–	–	CC(C)CC(N[C@H](Cc1cccnc1)C(=O)O)C(=O)O (stereo partly drawn) [CC, 2-(1-Carboxy-2-pyridin-3-yl-ethylamino)-4-methyl-pentanoic acid]
> 0.5 µM	> 0.5 µM	> 50 µM	> 50 µM	–	–	–	–	–	CC(C)CC(N[C@H](Cc1cncn1C)C(=O)O)C(=O)O (stereo partly drawn) [CB, 2-[1-Carboxy-2-(3-methyl-3H-imidazol-4-yl)-ethylamino]-4-methyl-pentanoic acid]
> 0.5 µM	> 0.5 µM	> 50 µM	> 50 µM	–	–	–	–	–	CC(C)CC(N[C@H](Cc1ccccn1)C(=O)O)C(=O)O (stereo in doubt) [BZ, 2-(1-Carboxy-2-pyridin-2-yl-ethylamino)-4-methyl-pentanoic acid]
–	–	–	–	< 0.1 µM	< 0.05 µM	< 0.1 µM	10 to 50 µM	10 to 50 µM	Cc1cccc(Cn2cncc2C[C@H](NC(CC(C)C)C(=O)O)C(=O)O)c1 (single isomer, unassigned) [HO, 2-[1-Carboxy-2-[3-(3-methyl-benzyl)-3H-imidazol-4-yl]-ethylamino]4-methyl-pentanoic acid]
> 0.5 µM	> 0.5 µM	> 50 µM	> 50 µM	–	–	–	–	–	CC(C)C[C@@H](N[C@@H](C(=O)O)c1ccccc1)C(=O)O [BT, 2-[(Carboxy-phenyl-methyl)-amino]-4-methyl-pentanoic acid]
> 0.5 µM	0.1 to 0.5 µM	> 50 µM	> 50 µM	–	–	–	–	–	CC(C)(C)C[C@H](N[C@@H](CCc1ccccc1)C(=O)O)C(=O)O [CK, 2-(1-Carboxy-3-phenyl-propylamino)-4,4-dimethylpentanoic acid]
> 0.5 µM	> 0.5 µM	> 50 µM	> 50 µM	–	–	–	–	–	CC(C)CC(N[C@H](CN(C)c1ccccc1)C(=O)O)C(=O)O (stereo partly drawn) [FT, 2-[1-Carboxy-2-(methyl-phenyl-amino)-ethylamino]-4-methyl-pentanoic acid]
> 0.5 µM	> 0.5 µM	> 50 µM	> 50 µM	–	–	–	–	–	CC(C)C[C@H](NC(C(=O)O)c1ccc2ccccc2c1)C(=O)O (stereo partly drawn) [BR, 2-[(Carboxy-naphthalen-2-yl-methyl)-amino]-4-methyl-pentanoic acid]
> 0.5 µM	0.1 to 0.5 µM	> 50 µM	10 to 50 µM	–	–	–	–	–	CC(C)C[C@H](N[C@@H](Cc1ccccc1)C(=O)O)C(=O)O [BW, 2-(1-Carboxy-2-phenyl-ethylamino)-4-methyl-pentanoic acid]
> 0.5 µM	> 0.5 µM	> 50 µM	> 50 µM	–	–	–	–	–	CC(C)CC(N[C@H](Cc1cn(C)cn1)C(=O)O)C(=O)O (stereo partly drawn) [CA, 2-[-Carboxy-2-(1-methyl-1H-imidazol-4-yl)-ethylamino]-4-methyl-pentanoic acid]
> 0.5 µM	> 0.5 µM	> 50 µM	> 50 µM	–	–	–	–	–	CC(C)CC(N[C@H](CN(C)Cc1ccccc1)C(=O)O)C(=O)O (stereo in doubt) [FU, 2-[2-(Benzyl-methyl-amino)-1-carboxy-ethylamino]-4-methyl-pentanoic acid]
> 0.5 µM	0.1 to 0.5 µM	> 50 µM	> 50 µM	–	–	–	–	–	CC(C)CC(NC(Cc1nccs1)C(=O)O)C(=O)O (stereo not drawn) [CF, 2-(1-Carboxy-2-thiazol-2-yl-ethylamino)-4-methyl-pentanoic acid]
